Data set [1] has as its target T1, human recombinant enzyme (CYP26) (Homo sapiens, UniProt O43174).
T1 sequence (O43174 1-497): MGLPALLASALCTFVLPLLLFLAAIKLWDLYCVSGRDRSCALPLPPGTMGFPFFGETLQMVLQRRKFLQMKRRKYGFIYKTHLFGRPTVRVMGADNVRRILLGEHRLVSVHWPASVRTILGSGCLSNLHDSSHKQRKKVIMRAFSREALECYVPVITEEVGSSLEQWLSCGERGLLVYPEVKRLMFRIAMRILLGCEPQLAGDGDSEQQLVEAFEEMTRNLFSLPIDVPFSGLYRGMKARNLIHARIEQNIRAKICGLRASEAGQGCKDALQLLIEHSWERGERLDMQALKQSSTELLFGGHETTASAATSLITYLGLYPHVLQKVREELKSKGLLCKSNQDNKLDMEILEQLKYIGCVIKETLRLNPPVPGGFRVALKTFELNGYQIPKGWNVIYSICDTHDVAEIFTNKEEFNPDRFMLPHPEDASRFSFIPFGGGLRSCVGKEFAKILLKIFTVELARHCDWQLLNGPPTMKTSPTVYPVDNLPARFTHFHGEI
To be noted: read-out: Km reported for the human recombinant enzyme; cited from earlier work.

Another data set has as its target T2, CYP26 (Mus musculus, UniProt O55127).
T2 construct: substrate depletion assay for ATRA metabolism in mouse microsomes; tissue Xenotech; host or cells: liver microsomes of mice treated with ATRA for four days
T2 sequence (O55127 1-497): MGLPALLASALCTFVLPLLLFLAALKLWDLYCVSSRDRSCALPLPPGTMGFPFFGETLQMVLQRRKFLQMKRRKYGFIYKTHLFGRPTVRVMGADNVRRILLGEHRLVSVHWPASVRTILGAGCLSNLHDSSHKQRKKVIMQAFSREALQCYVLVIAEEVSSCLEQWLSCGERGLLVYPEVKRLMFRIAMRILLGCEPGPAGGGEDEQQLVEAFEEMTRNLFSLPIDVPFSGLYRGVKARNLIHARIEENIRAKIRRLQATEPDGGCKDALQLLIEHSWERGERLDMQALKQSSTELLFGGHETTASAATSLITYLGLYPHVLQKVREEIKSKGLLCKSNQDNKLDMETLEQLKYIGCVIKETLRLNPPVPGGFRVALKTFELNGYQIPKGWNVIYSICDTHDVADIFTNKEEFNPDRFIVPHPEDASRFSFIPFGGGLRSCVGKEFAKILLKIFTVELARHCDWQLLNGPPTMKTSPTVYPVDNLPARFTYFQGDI
In words: CYP26 inhibition: substrate depletion assay for ATRA metabolism in induced mouse liver microsomes. It is filed as biochemical. (Liver microsomes are a subcellular fraction often used to study metabolism.)

Substrate in data set [2]: CC1=C(/C=C/C(C)=C/C=C/C(C)=C/C(=O)O)C(C)(C)CCC1
Briefly: cells, lysate or membranes named. To be noted: other: induced mouse microsomes, Michaelis-Menten kinetics; pH 7.4.

As usually defined, the Km is the substrate concentration at which the rate is half of its maximum. In the case of `CC1=C(/C=C/C(C)=C/C=C/C(C)=C/C(=O)O)C(C)(C)CCC1` [ATRA, all-trans retinoic acid], the Km in data set [1] was about 0.01 µM.

One may read the IC50 as the concentration that inhibits the measured activity by half. Low values mean greater potency in that assay, high ones weaker potency in that assay. In turn, `CCC(CC)C(c1ccc2nc(OCC(C)(C)C(=O)O)sc2c1)n1cncn1` (stereo not shown) [Example-1, 3-((6-(2-Ethyl-1-(1H-1,2,4-triazol-1-yl)butyl)benzo[d]thiazol-2-yl)oxy)-2,2-dimethylpropanoic Acid] registered an IC50 against CYP26 of under 1000 nM.

For the molecule `CCC(CC)C(c1ccc2nc(OCC(C)(C)C(=O)O)sc2c1)n1cnnc1` (stereo not shown) [Example-2, 3-((6-(2-Ethyl-1-(4H-1,2,4-triazol-4-yl)butyl)benzo[d]thiazol-2-yl)oxy)-2,2-dimethylpropanoic Acid], the IC50 at CYP26 was under 1000 nM.

For the molecule `CCC(CC)C(c1ccc2nc(OCC3(C(=O)O)CCCC3)sc2c1)n1cncn1` (stereo not shown) [Example-3, 1-(((6-(2-Ethyl-1-(1H-1,2,4-triazol-1-yl)butyl)benzo[d]thiazol-2-yl)oxy)methyl)cyclopentanecarboxylic Acid], the IC50 against CYP26 is under 1000 nM.

Molecule `CCC(CC)C(c1ccc2nc(OCC3(C(=O)O)CCCC3)sc2c1)n1cnnc1` (stereo not shown) [Example-4, 1-(((6-(2-Ethyl-1-(4H-1,2,4-triazol-4-yl)butyl)benzo[d]thiazol-2-yl)oxy)methyl)cyclopentanecarboxylic Acid] returned an IC50 against CYP26 of under 1000 nM.

In the case of `CCC(CC)C(c1ccc2nc(OCC3(C(=O)O)CCCCC3)sc2c1)n1cncn1` (stereo not shown) [Example-5, 1-(((6-(2-ethyl-1-(1H-1,2,4-triazol-1-yl)butyl)benzo[d]thiazol-2-yl)oxy)methyl)cyclohexanecarboxylic Acid], the IC50 on CYP26 was under 1000 nM.

`CCC(CC)C(c1ccc2nc(OCC3(C(=O)O)CCCCC3)sc2c1)n1cnnc1` (stereo not shown) [Example-6, 1-(((6-(2-Ethyl-1-(4H-1,2,4-triazol-4-yl)butyl)benzo[d]thiazol-2-yl)oxy)methyl)cyclohexanecarboxylic Acid] showed an IC50 at CYP26 of under 1000 nM.

At CYP26, `CCC(CC)C(c1ccc2nc(-c3ccc(C(=O)O)cc3)sc2c1)n1cncn1` (stereo not shown) [Example-7, 4-(6-(2-ethyl-1-(1H-1,2,4-triazol-1-yl)butyl)benzo[d]thiazol-2-yl)benzoic Acid] came in with an IC50 of under 1000 nM.

On CYP26, `CCC(CC)C(c1ccc2nc(-c3ccc(C(=O)O)cc3)sc2c1)n1cnnc1` (stereo not shown) [Example-8, 4-(6-(2-ethyl-1-(4H-1,2,4-triazol-4-yl)butyl)benzo[d]thiazol-2-yl)benzoic Acid] returned an IC50 of under 1000 nM.

B1: CYP26 (Mus musculus) (protein)
chain: T2 sequence (O55127 1-497)
In the case of B1, in data set [2], the Km came to 0.004 µM.

Values taken from patent US11459319B2, “Cytochrome P450 inhibitors and uses thereof” (ANGION BIOMEDICA CORP., priority 2014, dated 2022).
